Results from patent US20170334899A1, “AMINO-SUBSTITUTED ISOTHIAZOLES” (Bayer Pharma Aktiengesellschaft, priority 2014, published 2017).
Structures can show the parent of a compound that is named as a salt.

Molecular target: T1, human kinase Mps-1 (Homo sapiens, UniProt P33981)
T1 construct: N-terminally GST-tagged human full length recombinant Mps-1 kinase; GST (N); purchased Invitrogen, Karslruhe, Germany PV4071
T1 sequence (P33981 1-857): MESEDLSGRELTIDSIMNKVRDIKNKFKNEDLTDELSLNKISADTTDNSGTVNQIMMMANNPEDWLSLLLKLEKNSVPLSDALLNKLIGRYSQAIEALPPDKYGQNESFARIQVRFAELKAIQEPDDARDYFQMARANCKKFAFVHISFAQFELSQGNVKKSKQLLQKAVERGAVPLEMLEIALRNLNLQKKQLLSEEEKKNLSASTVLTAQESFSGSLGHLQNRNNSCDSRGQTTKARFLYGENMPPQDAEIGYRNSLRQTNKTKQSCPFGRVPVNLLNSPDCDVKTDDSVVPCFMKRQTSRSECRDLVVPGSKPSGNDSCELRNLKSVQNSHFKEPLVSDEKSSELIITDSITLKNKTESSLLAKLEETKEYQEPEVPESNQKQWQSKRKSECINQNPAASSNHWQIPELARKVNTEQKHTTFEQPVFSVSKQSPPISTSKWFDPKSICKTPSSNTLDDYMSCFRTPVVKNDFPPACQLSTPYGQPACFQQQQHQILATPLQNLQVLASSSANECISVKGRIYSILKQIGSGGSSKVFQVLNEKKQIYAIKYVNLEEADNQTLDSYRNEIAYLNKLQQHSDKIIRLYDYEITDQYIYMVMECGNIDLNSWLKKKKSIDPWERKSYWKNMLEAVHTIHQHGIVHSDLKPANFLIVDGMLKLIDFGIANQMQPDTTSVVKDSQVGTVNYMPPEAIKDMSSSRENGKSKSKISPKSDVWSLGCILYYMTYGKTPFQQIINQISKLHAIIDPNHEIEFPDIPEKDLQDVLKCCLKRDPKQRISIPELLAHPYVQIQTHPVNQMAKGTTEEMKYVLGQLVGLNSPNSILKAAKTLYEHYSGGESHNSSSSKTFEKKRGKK
Experiment: Mps-1 kinase assay (TR-FRET)
Type: biochemical
Conditions: Mps-1 TR-FRET kinase assay; avg; read-out: Mps1 avg (IC50 [mol/l])
Protocol: The human kinase Mps-1 phosphorylates a biotinylated substrate peptide. Detection of the phosphorylated product is achieved by time-resolved fluorescence resonance energy transfer (TR-FRET) from Europium-labelled anti-phospho-Serine/Threonine antibody as donor to streptavidin labelled with cross-linked allophycocyanin (SA-XLent) as acceptor. Compounds are tested for their inhibition of the kinase activity.
N-terminally GST-tagged human full length recombinant Mps-1 kinase (purchased from Invitrogen, Karslruhe, Germany, cat. no PV4071) was used. As substrate for the kinase reaction a biotinylated peptide of the amino-acid sequence biotin-Ahx-PWDPDDADITEILG (C-terminus in amide form, purchased from Biosyntan GmbH, Berlin) was used.
For the assay 50 nl of a 100-fold concentrated solution of the test compound in DMSO was pipetted into a black low volume 384we11 microtiter plate (Greiner Bio-One, Frickenhausen, Germany), 2 μl of a solution of Mps-1 in assay buffer [0.1 mM sodium-ortho-vanadate, 10 mM MgCl2,2 mM DTT, 25 mM Hepes pH 7.7, 0.05% BSA (w/v), 0.001% Pluronic F-127] were added and the mixture was incubated for 15 min at 22° C. to allow pre-binding of the test compounds to Mps-1 before the start of the kinase reaction. Then the kinase reaction was started by the addition of 3 μl of a solution of 16.7 μM adenosine-tri-phosphate (ATP, 16.7 μM=>final conc. in the 5 μl assay volume is 10 μM) and peptide substrate (1.67 μM=>final conc. in the 5 μl assay volume is 1 μM) in assay buffer and the resulting mixture was incubated for a reaction time of 60 min at 22° C. The concentration of Mps-1 in the assay was adjusted to the activity of the enzyme lot and was chosen appropriate to have the assay in the linear range, typical enzyme concentrations were in the range of about 0.5 nM (final conc. in the 5 μl assay volume). The reaction was stopped by the addition of 5 μl of a solution of TR-FRET detection reagents (100 mM Hepes pH 7.4, 0.1% BSA, 40 mM EDTA, 140 nM Streptavidin-XLent [#61GSTXLB, Fa. Cis Biointernational, Marcoule, France], 1.5 nM anti-phospho(Ser/Thr)-Europium-antibody [#AD0180, PerkinElmer LAS, Rodgau-Jugesheinn, Germany]. Instead of the 1.5 nM anti-phospho(Ser/Thr)-Europium-antibody a mixture of 2 nM unlabeled anti-phospho ser/thr-pro antibody MPM-2 [Millipore cat. #05-368] and 1 nM LANCE EU-W1024 labeled anti-mouse IgG antibody [Perkin-Elmer, product no. AD0077] can be used).
The resulting mixture was incubated 1 h at 22° C. to allow the binding of the phosphorylated peptide to the anti-phospho(Ser/Thr)-Europium-antibody. Subsequently the amount of phosphorylated substrate was evaluated by measurement of the resonance energy transfer from the Europium-labelled anti-phospho(Ser/Thr) antibody to the Streptavidin-XLent. Therefore, the fluorescence emissions at 620 nm and 665 nm after excitation at 350 nm was measured in a Viewlux TR-FRET reader (PerkinElmer LAS, Rodgau-Jugesheinn, Germany). The “blank-corrected normalized ratio” (a Viewlux specific readout, similar to the traditional ratio of the emissions at 665 nm and at 622 nm, in which blank and Eu-donor crosstalk are subtracted from the 665 nm signal before the ratio is calculated) was taken as the measure for the amount of phosphorylated substrate. The data were normalised (enzyme reaction without inhibitor=0% inhibition, all other assay components but no enzyme=100% inhibition).

IC50	Compound
6.5 µM	Cc1nsc(Nc2cnc3ccccc3n2)c1C(=O)Nc1cccc(C(=O)N[C@H](C(=O)O)[C@@H](C)O)c1 [Example 105, N-[3-({[3-methyl-5-(quinoxalin-2-ylamino)-1,2-thiazol-4-yl]carbonyl}amino)-benzoyl]threonine]
> 20 µM	Cc1nsc(Nc2cnc(C(F)(F)F)cn2)c1C(=O)Nc1ccc(O[C@@H]2CCN(CCC(F)(F)F)C[C@@H]2F)nc1 [Example 139, N-(6-{[(3S,4R)-3-fluoro-1-(3,3,3-trifluoropropyl)piperidin-4-yl]oxy}pyridin-3-yl)-3-methyl-5-{[5-(trifluoromethyl)pyrazin-2-yl]amino}-1,2-thiazole-4-carboxamide]
> 20 µM	Cc1nsc(Nc2cnc(C(F)(F)F)cn2)c1C(=O)Nc1ccc(C(=O)N2CCN(CC(F)F)CC2)cc1 [Example 154, N-(4-{[4-(2,2-difluoroethyl)piperazin-1-yl]carbonyl}phenyl)-3-methyl-5-{[5-(trifluoromethyl)pyrazin-2-yl]amino}-1,2-thiazole-4-carboxamide]
> 20 µM	Cc1nsc(Nc2cncc(C(F)(F)F)n2)c1C(=O)Nc1ccc(C(=O)NC2CCN(CC(F)(F)F)CC2)cc1 [Example 167, 3-methyl-N-(4-{[1-(2,2,2-trifluoroethyl)piperidin-4-yl]carbamoyl}phenyl)-5-{[6-(trifluoromethyl)pyrazin-2-yl]amino}-1,2-thiazole-4-carboxamide]
> 20 µM	Cc1nsc(Nc2cnc(C(F)(F)F)cn2)c1C(=O)Nc1ccc(O[C@H]2CCN(CC(F)(F)F)C[C@H]2F)nc1 [Example 145, N-(6-{[(3R,4S)-3-fluoro-1-(2,2,2-trifluoroethyl)piperidin-4-yl]oxy}pyridin-3-yl)-3-methyl-5-{[5-(trifluoromethyl)pyrazin-2-yl]amino}-1,2-thiazole-4-carboxamide]
≥ 20 µM	Cc1nsc(Nc2cnc(C(F)(F)F)cn2)c1C(=O)Nc1ccc(OC2CCN(CCF)CC2)nc1 [Example 7, N-(6-{[1-(2-Fluoroethyl)piperidin-4-yl]oxy}pyridin-3-yl)-3-methyl-5-{[5-(trifluoromethyl)pyrazin-2-yl]amino}-1,2-thiazole-4-carboxamide]
≥ 20 µM	Cc1nsc(Nc2cnc(C(F)(F)F)cn2)c1C(=O)Nc1ccc(OC2CCN(CCC(F)(F)F)CC2)nc1 [Example 426, 3-Methyl-5-{[5-(trifluoromethyl)pyrazin-2-yl]amino}-N-(6-{[1-(3,3,3-trifluoro-propyl)piperidin-4-yl]oxy}pyridin-3-yl)-1,2-thiazole-4-carboxamide, Salt with Hydrochloric Acid]
> 20 µM	Cc1nsc(Nc2cnc(C(F)(F)F)cn2)c1C(=O)Nc1ccc(O[C@H]2CCN(CC(F)F)C[C@H]2F)nc1 [Example 144, N-(6-{[(3R,4S)-1-(2,2-difluoroethyl)-3-fluoropiperidin-4-yl]oxy}pyridin-3-yl)-3-methyl-5-{[5-(trifluoromethyl)pyrazin-2-yl]amino}-1,2-thiazole-4-carboxamide]
≥ 20 µM	Cc1nsc(Nc2cc(C#N)ccn2)c1C(=O)Nc1ccc(Oc2cccnc2)nc1 [Example 119, 5-[(4-Cyanopyridin-2-yl)amino]-3-methyl-N-[6-(pyridin-3-yloxy)pyridin-3-yl]-1,2-thiazole-4-carboxamide]
≥ 20 µM	Cc1nsc(Nc2ccc(C#N)cn2)c1C(=O)Nc1ccc(Oc2cccc(C(F)(F)F)c2)nc1 [Example 118, 5-[(5-Cyanopyridin-2-yl)amino]-3-methyl-N-{6-[3-(trifluoromethyl)phenoxy]pyridin-3-yl}-1,2-thiazole-4-carboxamide]
> 20 µM	Cc1nsc(Nc2cnc3ccccc3n2)c1C(=O)Nc1ccc(C(=O)NC2CN(C(=O)OC(C)(C)C)CC(F)(F)C2)cc1 (stereo not drawn) [Example 158, tert-butyl 3,3-difluoro-5-{[4-({[3-methyl-5-(quinoxalin-2-ylamino)-1,2-thiazol-4-yl]carbonyl}amino)benzoyl]amino} piperidine-1-carboxylate]
> 20 µM	CCCN1CC[C@@H](Oc2ccc(NC(=O)c3c(C)nsc3Nc3cnc(C(F)(F)F)cn3)cn2)[C@@H](F)C1 [Example 140, N-(6-{[(3S,4R)-3-fluoro-1-propylpiperidin-4-yl]oxy}pyridin-3-yl)-3-methyl-5-{[5-(trifluoromethyl)pyrazin-2-yl]amino}-1,2-thiazole-4-carboxamide]
≥ 20 µM	Cc1nsc(Nc2cnc(C(F)(F)F)cn2)c1C(=O)Nc1ccc(OCC2CCN(C(=O)OC(C)(C)C)C2)nc1 (stereo not drawn) [Example 109, tert-Butyl 3-{[(5-{[(3-methyl-5-{[5-(trifluoromethyl)pyrazin-2-yl]amino}-1,2-thiazol-4-yl)carbonyl]amino}pyridin-2-yl)oxy]methyl}pyrrolidine-1-carboxylate]
≥ 20 µM	Cc1nsc(Nc2cnc3ccccc3n2)c1C(=O)Nc1ccc(S(C)(=O)=O)cc1 [Example 115, 3-Methyl-N-[4-(methylsulfonyl)phenyl]-5-(quinoxalin-2-ylamino)-1,2-thiazole-4-carboxamide]
≥ 20 µM	Cc1nsc(Nc2cnc(C(F)(F)F)cn2)c1C(=O)Nc1ccc(OC2CCN(CCC(F)(F)F)CC2)nc1 [Example 10, 3-Methyl-5-{[5-(trifluoromethyl)pyrazin-2-yl]amino}-N-(6-{[1-(3,3,3-trifluoropropyl)-piperidin-4-yl]oxy}pyridin-3-yl)-1,2-thiazole-4-carboxamide]
> 20 µM	Cc1nsc(Nc2ccc(C#N)cn2)c1C(=O)Nc1ccc(NC2CCCN(C(=O)OC(C)(C)C)C2)nc1 (stereo not drawn) [Example 171, tert-butyt 3-({5-[({5-[(5-cyanopyridin-2-yl)amino]-3-methyl-1,2-thiazol-4-yl}carbonyl)amino]pyridin-2-yl}amino)piperidine-1-carboxylate]
≥ 20 µM	Cc1nsc(Nc2cnc(C(F)(F)F)cn2)c1C(=O)Nc1ccc(OC2CCN(CC(F)(F)F)CC2)nc1 [Example 9, -Methyl-N-(6-{[1-(2,2,2-trifluoroethyl)piperidin-4-yl]oxy}pyridin-3-yl)-5-{[5-(trifluoromethyl)pyrazin-2-yl]amino}-1,2-thiazole-4-carboxamide]
≥ 20 µM	Cc1nsc(Nc2cnc(C(F)(F)F)cn2)c1C(=O)Nc1ccc(OCC2CCN(CC(F)F)C2)nc1 (stereo not drawn) [Example 122, N-(6-{[1-(2,2-difluoroethyl)pyrrolidin-3-yl]methoxy}pyridin-3-yl)-3-methyl-5-{[5-(trifluoromethyl)pyrazin-2-yl]amino}-1,2-thiazole-4-carboxamide]
